pIC50, pKd: −log10 of the molar value.
System: not listed separately
Test: Cytotoxicity against human NCI-H2722 cells measured after 8 days
Assay type: functional, cell-based
Settings: NCI-H2722, 192 h

Compound | pIC50
C/C=C/Cn1cc(-c2ccc(C(C)(C)O)cc2OC)c2cc[nH]c2c1=O | 4.70

System: HCC4017
Test: Cytotoxicity against human HCC4017 cells measured after 8 days
Assay type: functional, cell-based
Settings: HCC4017, 192 h

Compound | pIC50
C/C=C/Cn1cc(-c2ccc(C(C)(C)O)cc2OC)c2cc[nH]c2c1=O | 4.70

Biological target: Serine/threonine-protein kinase 24 (Homo sapiens) (UniProt Q9Y6E0)
Test: Inhibition of MST3 (unknown origin) at 1 uM relative to control
Settings: not given

Chain of Serine/threonine-protein kinase 24 (Homo sapiens) (Q9Y6E0 whole entry, looked up): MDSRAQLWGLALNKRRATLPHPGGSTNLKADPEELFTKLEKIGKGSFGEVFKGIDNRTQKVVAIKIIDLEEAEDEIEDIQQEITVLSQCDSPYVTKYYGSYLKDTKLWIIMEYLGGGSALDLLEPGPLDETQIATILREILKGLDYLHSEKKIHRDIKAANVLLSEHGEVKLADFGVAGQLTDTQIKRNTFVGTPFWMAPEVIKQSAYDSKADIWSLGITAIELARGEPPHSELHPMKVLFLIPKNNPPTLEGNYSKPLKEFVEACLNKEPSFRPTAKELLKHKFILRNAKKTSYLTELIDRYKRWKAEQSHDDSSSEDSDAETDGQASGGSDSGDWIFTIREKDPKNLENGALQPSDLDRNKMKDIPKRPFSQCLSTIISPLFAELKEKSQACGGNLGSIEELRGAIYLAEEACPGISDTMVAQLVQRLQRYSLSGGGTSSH

Compound | inhibition [%]
C/C=C/Cn1cc(-c2ccc(C(C)(C)O)cc2OC)c2cc[nH]c2c1=O | 6

System: JeKo-1
Test: Cytotoxicity against human JeKo-1 cells measured after 8 days
Assay type: functional, cell-based
Settings: JeKo-1, 192 h

Compound | pIC50
C/C=C/Cn1cc(-c2ccc(C(C)(C)O)cc2OC)c2cc[nH]c2c1=O | 4.97

System: NCI-H1581
Test: Cytotoxicity against human NCI-H1581 cells measured after 8 days
Assay type: functional, cell-based
Settings: NCI-H1581, 192 h

Compound | pIC50
C/C=C/Cn1cc(-c2ccc(C(C)(C)O)cc2OC)c2cc[nH]c2c1=O | 4.70

Biological target: Aurora kinase B (Homo sapiens) (UniProt Q96GD4)
Test: Inhibition of Aurora B (unknown origin) at 1 uM relative to control
Settings: not given

Chain of Aurora kinase B (Homo sapiens) (Q96GD4 whole entry): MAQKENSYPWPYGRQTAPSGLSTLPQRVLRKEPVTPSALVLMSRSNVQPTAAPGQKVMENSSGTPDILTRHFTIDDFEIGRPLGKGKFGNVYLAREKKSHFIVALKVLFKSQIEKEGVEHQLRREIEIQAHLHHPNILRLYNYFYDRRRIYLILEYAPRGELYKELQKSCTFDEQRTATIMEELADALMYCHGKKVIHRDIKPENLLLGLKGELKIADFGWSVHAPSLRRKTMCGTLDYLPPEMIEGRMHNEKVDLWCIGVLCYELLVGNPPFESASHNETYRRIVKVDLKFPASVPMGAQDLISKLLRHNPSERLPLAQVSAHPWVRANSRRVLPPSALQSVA

Compound | inhibition [%]
C/C=C/Cn1cc(-c2ccc(C(C)(C)O)cc2OC)c2cc[nH]c2c1=O | -0.5

System: EB2
Test: Cytotoxicity against human EB2 cells measured after 8 days
Assay type: functional, cell-based
Settings: EB2, 192 h

Compound | pIC50
C/C=C/Cn1cc(-c2ccc(C(C)(C)O)cc2OC)c2cc[nH]c2c1=O | 4.70

System: GP5d
Test: Cytotoxicity against human GP5d cells measured after 8 days
Assay type: functional, cell-based
Settings: 192 h

Compound | pIC50
C/C=C/Cn1cc(-c2ccc(C(C)(C)O)cc2OC)c2cc[nH]c2c1=O | 4.70

System: HPAC
Test: Cytotoxicity against human HPAC cells measured after 8 days
Assay type: functional, cell-based
Settings: 192 h

Compound | pIC50
C/C=C/Cn1cc(-c2ccc(C(C)(C)O)cc2OC)c2cc[nH]c2c1=O | 4.70

Biological target: Proto-oncogene tyrosine-protein kinase Src (Homo sapiens) (UniProt P12931)
Test: Inhibition of Src (unknown origin) at 1 uM relative to control
Settings: not given

Chain of Proto-oncogene tyrosine-protein kinase Src (Homo sapiens) (P12931 2-536 limits assumed): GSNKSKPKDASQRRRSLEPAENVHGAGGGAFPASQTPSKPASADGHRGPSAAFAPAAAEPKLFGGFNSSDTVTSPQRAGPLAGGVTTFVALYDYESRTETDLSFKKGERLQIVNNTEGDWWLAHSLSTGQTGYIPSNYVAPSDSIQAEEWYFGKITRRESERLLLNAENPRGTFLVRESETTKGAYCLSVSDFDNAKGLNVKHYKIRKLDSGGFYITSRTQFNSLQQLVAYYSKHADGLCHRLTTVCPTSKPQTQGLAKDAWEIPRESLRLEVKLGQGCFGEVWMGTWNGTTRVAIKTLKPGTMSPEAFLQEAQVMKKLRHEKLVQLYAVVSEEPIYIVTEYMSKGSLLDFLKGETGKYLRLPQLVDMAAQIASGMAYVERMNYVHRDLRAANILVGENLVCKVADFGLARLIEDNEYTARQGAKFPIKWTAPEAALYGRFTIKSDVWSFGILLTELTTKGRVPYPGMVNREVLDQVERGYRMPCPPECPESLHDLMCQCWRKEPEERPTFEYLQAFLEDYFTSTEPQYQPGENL

Compound | inhibition [%]
C/C=C/Cn1cc(-c2ccc(C(C)(C)O)cc2OC)c2cc[nH]c2c1=O | 4.5

System: NCI-H2228
Test: Cytotoxicity against human NCI-H2228 cells measured after 8 days
Assay type: functional, cell-based
Settings: NCI-H2228, 192 h

Compound | pIC50
C/C=C/Cn1cc(-c2ccc(C(C)(C)O)cc2OC)c2cc[nH]c2c1=O | 4.70

System: SW-620
Test: Cytotoxicity against human SW620 cells measured after 8 days
Assay type: functional, cell-based
Settings: SW-620, 192 h

Compound | pIC50
C/C=C/Cn1cc(-c2ccc(C(C)(C)O)cc2OC)c2cc[nH]c2c1=O | 4.70

Biological target: Cyclin-dependent kinase 2/cyclin A (Homo sapiens) (UniProt P24941+P20248+P78396)
Test: Inhibition of CDK2/cyclin A (unknown origin) at 1 uM relative to control
Assay type: protein-complex assay
Settings: not given

Compound | inhibition [%]
C/C=C/Cn1cc(-c2ccc(C(C)(C)O)cc2OC)c2cc[nH]c2c1=O | 1

System: DB
Test: Cytotoxicity against human DB cells measured after 8 days
Assay type: functional, cell-based
Settings: 192 h

Compound | pIC50
C/C=C/Cn1cc(-c2ccc(C(C)(C)O)cc2OC)c2cc[nH]c2c1=O | 4.77

System: OCI-LY19
Test: Cytotoxicity against human OCILY19 cells measured after 8 days
Assay type: functional, cell-based
Settings: OCI-LY19, 192 h

Compound | pIC50
C/C=C/Cn1cc(-c2ccc(C(C)(C)O)cc2OC)c2cc[nH]c2c1=O | 4.83

System: PC-3
Test: Cytotoxicity against human PC-3 cells measured after 8 days
Assay type: functional, cell-based
Settings: PC-3, 192 h

Compound | pIC50
C/C=C/Cn1cc(-c2ccc(C(C)(C)O)cc2OC)c2cc[nH]c2c1=O | 4.70

System: not listed separately
Test: Cytotoxicity against human HCA7 cells measured after 8 days
Assay type: functional, cell-based
Settings: HCA-7, 192 h

Compound | pIC50
C/C=C/Cn1cc(-c2ccc(C(C)(C)O)cc2OC)c2cc[nH]c2c1=O | 4.70

Biological target: Dual specificity protein kinase CLK2 (Homo sapiens) (UniProt P49760)
Test: Inhibition of CLK2 (unknown origin) at 1 uM relative to control
Settings: not given

Chain of Dual specificity protein kinase CLK2 (Homo sapiens) (P49760 whole entry, looked up): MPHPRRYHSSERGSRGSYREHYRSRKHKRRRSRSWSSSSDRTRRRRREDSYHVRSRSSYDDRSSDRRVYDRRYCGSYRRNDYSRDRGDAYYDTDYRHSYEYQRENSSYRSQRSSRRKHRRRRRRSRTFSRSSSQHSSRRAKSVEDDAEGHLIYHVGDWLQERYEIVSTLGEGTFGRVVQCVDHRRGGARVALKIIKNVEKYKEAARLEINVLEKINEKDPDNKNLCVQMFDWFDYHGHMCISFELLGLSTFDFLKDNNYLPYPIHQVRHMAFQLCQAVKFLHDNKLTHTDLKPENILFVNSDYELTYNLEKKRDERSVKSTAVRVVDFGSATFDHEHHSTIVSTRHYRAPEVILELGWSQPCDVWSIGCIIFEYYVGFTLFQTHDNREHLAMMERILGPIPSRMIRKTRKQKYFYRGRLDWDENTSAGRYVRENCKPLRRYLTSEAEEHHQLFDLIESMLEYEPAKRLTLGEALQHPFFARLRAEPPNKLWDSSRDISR

Compound | inhibition [%]
C/C=C/Cn1cc(-c2ccc(C(C)(C)O)cc2OC)c2cc[nH]c2c1=O | 8

System: NCI-H1651
Test: Cytotoxicity against human NCI-H1651 cells measured after 8 days
Assay type: functional, cell-based
Settings: NCI-H1651, 192 h

Compound | pIC50
C/C=C/Cn1cc(-c2ccc(C(C)(C)O)cc2OC)c2cc[nH]c2c1=O | 4.70

System: not listed separately
Test: Cytotoxicity against human NCI-H1339 cells measured after 8 days
Assay type: functional, cell-based
Settings: NCI-H1339, 192 h

Compound | pIC50
C/C=C/Cn1cc(-c2ccc(C(C)(C)O)cc2OC)c2cc[nH]c2c1=O | 4.70

Biological target: T1, Myotonin-protein kinase (Homo sapiens) (UniProt Q09013)
T1 sequence (whole entry): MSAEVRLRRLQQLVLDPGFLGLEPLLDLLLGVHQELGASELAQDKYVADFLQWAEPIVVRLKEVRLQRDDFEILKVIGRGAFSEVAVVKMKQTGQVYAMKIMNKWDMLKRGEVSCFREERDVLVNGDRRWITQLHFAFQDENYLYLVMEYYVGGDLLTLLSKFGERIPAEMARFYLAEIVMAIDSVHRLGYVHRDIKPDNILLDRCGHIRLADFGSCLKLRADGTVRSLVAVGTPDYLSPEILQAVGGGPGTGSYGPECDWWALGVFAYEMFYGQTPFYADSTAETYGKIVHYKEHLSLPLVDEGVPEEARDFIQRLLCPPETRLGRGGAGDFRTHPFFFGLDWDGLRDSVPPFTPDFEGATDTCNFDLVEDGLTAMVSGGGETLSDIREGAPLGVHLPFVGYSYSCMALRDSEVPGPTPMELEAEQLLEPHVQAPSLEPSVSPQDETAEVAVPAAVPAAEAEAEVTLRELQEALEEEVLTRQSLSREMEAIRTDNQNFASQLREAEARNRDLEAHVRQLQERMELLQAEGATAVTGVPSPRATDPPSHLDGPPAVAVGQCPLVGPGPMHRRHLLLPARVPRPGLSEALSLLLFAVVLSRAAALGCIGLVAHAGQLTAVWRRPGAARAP
Test: Inhibition of DMPK (unknown origin) at 1 uM relative to control
Settings: not given

Compound | inhibition [%]
C/C=C/Cn1cc(-c2ccc(C(C)(C)O)cc2OC)c2cc[nH]c2c1=O | 2.5

System: UACC-62
Test: Cytotoxicity against human UACC-62 cells measured after 8 days
Assay type: functional, cell-based
Settings: UACC-62, 192 h

Compound | pIC50
C/C=C/Cn1cc(-c2ccc(C(C)(C)O)cc2OC)c2cc[nH]c2c1=O | 4.70

System: NCI-H727
Test: Cytotoxicity against human NCI-H727 cells measured after 8 days
Assay type: functional, cell-based
Settings: NCI-H727, 192 h

Compound | pIC50
C/C=C/Cn1cc(-c2ccc(C(C)(C)O)cc2OC)c2cc[nH]c2c1=O | 4.70

System: not listed separately
Test: Cytotoxicity against human SW527 cells measured after 8 days
Assay type: functional, cell-based
Settings: SW527, 192 h

Compound | pIC50
C/C=C/Cn1cc(-c2ccc(C(C)(C)O)cc2OC)c2cc[nH]c2c1=O | 4.70

Biological target: Protein polybromo-1 (Homo sapiens, UniProt Q86U86)
Test: Binding affinity to human partial length PBRM1 bromodomain 1 (S178 to E291 residues) expressed in bacterial expression system by BROMOscan assay
Settings: not given

Chain of Protein polybromo-1 (Q86U86 whole entry, the tested form may be a part): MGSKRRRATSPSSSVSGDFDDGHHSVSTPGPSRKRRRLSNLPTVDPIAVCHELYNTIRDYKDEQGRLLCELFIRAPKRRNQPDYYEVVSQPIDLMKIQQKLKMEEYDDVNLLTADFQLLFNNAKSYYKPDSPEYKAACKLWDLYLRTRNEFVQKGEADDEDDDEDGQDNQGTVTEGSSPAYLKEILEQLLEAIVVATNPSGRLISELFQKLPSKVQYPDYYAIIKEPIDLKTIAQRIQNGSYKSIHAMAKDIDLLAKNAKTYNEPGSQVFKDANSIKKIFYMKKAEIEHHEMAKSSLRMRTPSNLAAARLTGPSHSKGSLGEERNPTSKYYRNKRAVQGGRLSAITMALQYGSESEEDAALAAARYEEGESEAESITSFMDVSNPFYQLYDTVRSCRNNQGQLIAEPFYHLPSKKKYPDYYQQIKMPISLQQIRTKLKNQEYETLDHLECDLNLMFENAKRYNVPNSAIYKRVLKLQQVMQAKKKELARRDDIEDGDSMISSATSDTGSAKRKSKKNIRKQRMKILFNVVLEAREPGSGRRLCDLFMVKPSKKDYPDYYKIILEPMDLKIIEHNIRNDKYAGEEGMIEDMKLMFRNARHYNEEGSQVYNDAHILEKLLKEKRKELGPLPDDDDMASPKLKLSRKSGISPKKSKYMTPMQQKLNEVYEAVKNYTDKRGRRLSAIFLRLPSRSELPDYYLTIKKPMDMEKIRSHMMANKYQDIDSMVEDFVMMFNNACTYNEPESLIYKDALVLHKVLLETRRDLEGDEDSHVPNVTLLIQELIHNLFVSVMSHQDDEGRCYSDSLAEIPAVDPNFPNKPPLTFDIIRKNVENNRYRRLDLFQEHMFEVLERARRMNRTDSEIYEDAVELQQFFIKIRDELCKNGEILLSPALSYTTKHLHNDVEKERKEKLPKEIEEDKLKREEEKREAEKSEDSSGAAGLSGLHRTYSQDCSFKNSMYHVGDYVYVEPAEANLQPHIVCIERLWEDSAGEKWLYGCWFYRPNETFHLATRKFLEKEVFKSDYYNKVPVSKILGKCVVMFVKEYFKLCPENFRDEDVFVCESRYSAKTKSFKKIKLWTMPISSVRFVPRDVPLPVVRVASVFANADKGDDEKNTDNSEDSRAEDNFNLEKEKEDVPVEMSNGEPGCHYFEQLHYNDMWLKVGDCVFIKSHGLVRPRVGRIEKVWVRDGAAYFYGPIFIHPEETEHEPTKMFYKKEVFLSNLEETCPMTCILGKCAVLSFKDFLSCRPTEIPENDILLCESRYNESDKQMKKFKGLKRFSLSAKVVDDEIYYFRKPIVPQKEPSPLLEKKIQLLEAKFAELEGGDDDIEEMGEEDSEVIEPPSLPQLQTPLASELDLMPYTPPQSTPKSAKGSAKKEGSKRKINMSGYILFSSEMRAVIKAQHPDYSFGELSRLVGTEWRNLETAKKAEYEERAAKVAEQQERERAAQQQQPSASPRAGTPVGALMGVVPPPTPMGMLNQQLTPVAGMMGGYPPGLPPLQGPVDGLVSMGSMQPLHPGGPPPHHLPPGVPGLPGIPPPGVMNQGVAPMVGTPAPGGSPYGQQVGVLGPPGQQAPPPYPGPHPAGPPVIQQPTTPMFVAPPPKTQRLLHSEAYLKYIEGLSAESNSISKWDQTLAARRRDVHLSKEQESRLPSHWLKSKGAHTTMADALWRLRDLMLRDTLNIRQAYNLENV

Compound | pKd
C/C=C/Cn1cc(-c2ccc(C(C)(C)O)cc2OC)c2cc[nH]c2c1=O | 5.12

Biological target: T2, Endothelin-1 receptor (Homo sapiens) (UniProt P25101)
T2 sequence (whole entry): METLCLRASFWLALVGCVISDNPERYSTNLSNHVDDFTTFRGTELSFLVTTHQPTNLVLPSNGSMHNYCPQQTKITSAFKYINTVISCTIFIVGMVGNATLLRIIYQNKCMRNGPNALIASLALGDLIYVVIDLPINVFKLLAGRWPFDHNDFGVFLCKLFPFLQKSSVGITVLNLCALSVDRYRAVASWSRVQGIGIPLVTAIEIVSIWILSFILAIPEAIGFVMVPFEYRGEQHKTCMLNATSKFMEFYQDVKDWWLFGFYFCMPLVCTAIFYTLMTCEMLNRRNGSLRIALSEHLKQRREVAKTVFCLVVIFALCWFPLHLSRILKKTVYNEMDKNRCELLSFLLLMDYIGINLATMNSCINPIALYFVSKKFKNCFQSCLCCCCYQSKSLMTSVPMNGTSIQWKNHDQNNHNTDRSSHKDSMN
Test: Displacement of [125I]-endothelin-1 from human recombinant ETA receptor at 10 uM after 120 mins by scintillation counting analysis relative to control
Settings: not given

Compound | Activity [%]
C/C=C/Cn1cc(-c2ccc(C(C)(C)O)cc2OC)c2cc[nH]c2c1=O | 12

System: LXF-289 cell line
Test: Cytotoxicity against human LXF-289 cell line measured after 8 days
Assay type: functional, cell-based
Settings: LXF-289, 192 h

Compound | pIC50
C/C=C/Cn1cc(-c2ccc(C(C)(C)O)cc2OC)c2cc[nH]c2c1=O | 4.70

System: HCC1419
Test: Cytotoxicity against human HCC1419 cells measured after 8 days
Assay type: functional, cell-based
Settings: HCC1419, 192 h

Compound | pIC50
C/C=C/Cn1cc(-c2ccc(C(C)(C)O)cc2OC)c2cc[nH]c2c1=O | 4.70

System: NCI-H1975
Test: Cytotoxicity against human NCI-H1975 cells measured after 8 days
Assay type: functional, cell-based
Settings: NCI-H1975, 192 h

Compound | pIC50
C/C=C/Cn1cc(-c2ccc(C(C)(C)O)cc2OC)c2cc[nH]c2c1=O | 4.70

System: KP-4
Test: Cytotoxicity against human KP-4 cells measured after 8 days
Assay type: functional, cell-based
Settings: KP-4, 192 h

Compound | pIC50
C/C=C/Cn1cc(-c2ccc(C(C)(C)O)cc2OC)c2cc[nH]c2c1=O | 4.70

System: KNS-62
Test: Cytotoxicity against human KNS-62 cells measured after 8 days
Assay type: functional, cell-based
Settings: KNS-62, 192 h

Compound | pIC50
C/C=C/Cn1cc(-c2ccc(C(C)(C)O)cc2OC)c2cc[nH]c2c1=O | 4.83

System: NCI-H358
Test: Cytotoxicity against human NCI-H358 cells measured after 8 days
Assay type: functional, cell-based
Settings: NCI-H358, 192 h

Compound | pIC50
C/C=C/Cn1cc(-c2ccc(C(C)(C)O)cc2OC)c2cc[nH]c2c1=O | 4.70

Biological target: Sodium-dependent dopamine transporter (Homo sapiens) (UniProt Q01959)
Test: Displacement of […] from recombinant human Dopamine transporter at 10 uM after 120 mins by scintillation counting analysis relative to control
Settings: not given

Chain of Sodium-dependent dopamine transporter (Homo sapiens) (Q01959 whole entry): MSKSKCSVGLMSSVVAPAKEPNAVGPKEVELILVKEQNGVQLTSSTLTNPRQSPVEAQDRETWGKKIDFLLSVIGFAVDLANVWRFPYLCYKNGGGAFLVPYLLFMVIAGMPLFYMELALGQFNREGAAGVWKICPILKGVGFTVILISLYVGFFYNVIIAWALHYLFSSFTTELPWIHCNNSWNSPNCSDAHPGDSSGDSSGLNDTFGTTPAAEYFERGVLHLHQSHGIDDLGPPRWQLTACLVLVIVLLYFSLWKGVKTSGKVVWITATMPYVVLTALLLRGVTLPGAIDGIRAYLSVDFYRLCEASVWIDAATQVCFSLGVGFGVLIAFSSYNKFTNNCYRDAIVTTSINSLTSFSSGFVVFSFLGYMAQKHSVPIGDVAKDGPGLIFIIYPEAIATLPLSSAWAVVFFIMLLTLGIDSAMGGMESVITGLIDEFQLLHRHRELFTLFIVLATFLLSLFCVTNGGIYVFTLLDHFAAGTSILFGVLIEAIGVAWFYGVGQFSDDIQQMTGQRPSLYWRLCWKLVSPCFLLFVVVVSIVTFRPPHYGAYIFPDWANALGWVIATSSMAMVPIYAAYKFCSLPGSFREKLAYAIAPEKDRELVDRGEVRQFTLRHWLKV

Compound | Activity [%]
C/C=C/Cn1cc(-c2ccc(C(C)(C)O)cc2OC)c2cc[nH]c2c1=O | 15

System: HOP-62
Test: Cytotoxicity against human HOP-62 cells measured after 8 days
Assay type: functional, cell-based
Settings: HOP-62, 192 h

Compound | pIC50
C/C=C/Cn1cc(-c2ccc(C(C)(C)O)cc2OC)c2cc[nH]c2c1=O | 4.70

Source: ChEMBL document CHEMBL5260810, “Inhibition of bromodomain-containing protein 9 for the prevention of epigenetically-defined drug resistance” (Bioorg Med Chem Lett, 2017)
